In patent US10023591B2, “Heterocyclic derivatives and use thereof” (C&C RESEARCH LABORATORIES, priority 2014, dated 2018):

Key:
STAT3 = STAT3 reporter gene assay (luciferase), LNCaP stable cell line pSTAT3-TA-luc, IL-6 stimulation; type: cell-based, human; conditions: Homo sapiens
Description: 1-1) Experiment on the Inhibition of STAT3 Activity
A human prostate cancer cell line (LNCaP stable cell line; plasmid pSTAT3-TA-luc), which contains a stably operating STAT3 promoter, was cultured in RPMI1640 medium (Cat No. 11875, Life Technologies) containing 10% fetal bovine serum (FBS) (Cat No. SH30396, Thermo Scientific) and 150 μg/mL G-418 solution (Cat No. 04 727 894 001, Roche). The reporter gene assay using LNCaP stable cell line was performed in RPMI1640 medium containing 3% DCC-FBS without G-418 solution. LNCaP stable cells were plated in two (2) white 96-well plates with 30,000 cells/50 μL in each well. The cells were cultured at 37° C., under 5% CO2 for 24 hours, and then treated with the compounds listed in Examples which were diluted in various concentrations. Subsequently, IL-6 was added to each well with a final concentration of 10 ng/mL. Upon completion of the treatment with the compounds and IL-6, the cells were cultured at 37° C., under 5% CO2 for 24 hours. The plates were observed under microscope and drug precipitation and particular findings were investigated and recorded.
(§1) The luciferase assay and the cell viability assay were performed respectively with one of the two plates. For the luciferase assay, the liquid media in the 96-well plate was removed, and then, 20 μL, of passive cell lysis buffer was added to each well. After shaking the plate for 30 minutes, luciferase activities of each well were measured in a PHERAstar™ microplate reader (BMG LABTECH) using a luciferase assay system (Cat No. E1501, Promega). For the cell viability assay, the 96-well plate was placed at room temperature for 30 minutes, added with 20 μL/well of CellTiter-Glo solution (Cat No. G7573, Promega), and shaken for 10 minutes in order to measure cytotoxicity caused by the compounds listed in Examples with a PHERAstar™ microplate reader (BMG LABTECH). Wells without 0.1% DMSO and stimulation were used as a negative control and wells with 0.1% DMSO and stimulation were used as a positive control.
(§2) The results of evaluation on the inhibitory effect of the compounds listed in the Examples on the dimerization of STAT3 and STAT1 obtained via the STAT3 and STAT1 reporter gene assays are shown in Table 9 below.

[1] = tested on: NCI-N87 stomach cancer cell line; assay: Cell growth inhibition assay, NCI-N87 (CellTiter-Glo); type: cell-based; conditions: Homo sapiens; NCI-N87, 5,000 cells/well, 96 hours
Description: The inhibitory effects of the compounds of the present invention against the growth of cancer cells were evaluated as shown below. The cancer cell lines including prostate cancer cell lines (LNCaP, DU-145), stomach cancer cell line (NCI-N87), and breast cancer cell lines (MDA-MB-468) were cultured under the protocol provided by each supplier. A medium supplemented with 10 ng/mL of IL-6 was used for LNCaP, a prostate cancer cell line, when treated with a drug. Each type of cells to be used in experiments was sub-cultured in a 96-well plate by counting the exact number of cells using Tali™ Image-based Cytometer (Life Technologies). In a 96-well plate, DU-145 was employed with 3,000 cells/well; NCI-N87 was employed with 5,000 cells/well; and LNCaP and MDA-MB-468 were employed with 10,000 cells/well. The cells were treated with the compounds listed in Examples which were diluted in various concentrations. Upon completion of the compounds treatment, LNCaP, DU-145, NCI-N87 cells were cultured at 37° C. under 5% CO2 for 96 hours, and MDA-MB-468 cells were cultured at 37° C. in air for 96 hours. Subsequently, the cells were observed under microscope and drug precipitation and particular findings were investigated and recorded. And then, the 96-well plate was placed at room temperature for 30 minutes, added with 20 pt/well of CellTiter-Glo solution (Cat No. G7573, Promega) and shaken for 10 minutes, followed by being subjected to the measurement using PHERAstar™ microplate reader (BMG LABTECH) according to the supplier's general luminometer protocol. Wells where only culture liquid added without cell plating were used as a negative control, whereas wells where culture liquid containing 0.1% DMSO instead of the compounds listed in Examples were used as a positive control.

STAT1 = STAT1 reporter gene assay (luciferase), U2OS stable cell line pGL4-STAT1-TA-luc, IFN-γ stimulation; type: cell-based, human; conditions: Homo sapiens, IFN-γ 50 ng/mL, 8 hours, read-out: IC50 (μM) pSTAT1
Description: 1-2) Experiment on the Inhibition of STAT1 Activity
A human osteosarcoma cell line (U2OS stable cell line; pGL4-STAT1-TA-luc), which contains a stably operating STAT1 promoter, was cultured in McCoy 5′A medium (Cat No. 16600, Life Technologies) containing 10% FBS (Cat No. SH30396, Thermo Scientific) and 1000 μg/mL G418 solution (Cat No. 04 727 894 001, Roche). The reporter gene assay using U2OS stable cell line was performed in McCoy 5′A medium containing 10% FBS without G-418 solution. U2OS stable cells were plated in two (2) white 96-well plates with 25,000 cells/50 pt in each well. The cells were cultured at 37° C., under 5% CO2 for 24 hours, and then treated with the compounds listed in Examples which were diluted in various concentrations. Subsequently, IFN-γ was added to each well with a final concentration of 50 ng/mL. Upon completion of the treatment with the compounds and IFN-γ, the cells were cultured at 37° C., under 5% CO2 for 8 hours. The plates were observed under microscope and drug precipitation and particular findings were investigated and recorded.
as §1, with “of” for “of the”, “μL” for “μL,”
as §2

Row | IC50 (STAT3) | IC50 [1] | IC50 (STAT1) | Structure (SMILES)
1 | 0.0083 µM | 0.01 µM | > 50 µM | C=CCOc1cc(OC(F)(F)F)cc(C(C)(C)c2cc(Cl)cc(NC(=O)c3cc4cc(C(C)(C)S(C)(=O)=O)ccc4s3)c2)c1 [Example 14, N-(3-(2-(3-(allyloxy)-5-(trifluoromethoxy)phenyl)propan-2-yl)-5-chlorophenyl)-5-(2-(methylsulfonyl)propan-2-yl)benzo[b]thiophene-2-carboxamide]
2 | 0.0057 µM | 0.0093 µM | > 50 µM | CC(C)(c1cc(Cl)cc(NC(=O)c2cc3cc(C(C)(C)S(C)(=O)=O)ccc3s2)c1)c1cc(OC2CC2)cc(OC(F)(F)F)c1 [Example 15, N-(3-chloro-5-(2-(3-cyclopropoxy-5-(trifluoromethoxy)phenyl)propan-2-yl)phenyl)-5-(2-(methylsulfonyl)propan-2-yl)benzo[b]thiophene-2-carboxamide]
3 | 0.0025 µM | 0.24 µM | > 50 µM | Cn1cccc1C(C)(C)c1cc(Cl)cc(NC(=O)c2cc3cc(C(C)(C)S(C)(=O)=O)ccc3s2)c1 [Example 31, N-(3-chloro-5-(2-(1-methyl-1H-pyrrol-2-yl)propan-2-yl)phenyl)-5-(2-(methylsulfonyl)propan-2-yl)benzo[b]thiophene-2-carboxamide]
4 | 0.01 µM | 0.076 µM | > 50 µM | Cc1csc(C(C)(C)c2cc(Cl)cc(NC(=O)c3cc4cc(C(C)(C)S(C)(=O)=O)ccc4s3)c2)c1 [Example 32, N-(3-chloro-5-(2-(4-methylthiophen-2-yl)propan-2-yl)phenyl)-5-(2-(methylsulfonyl)propan-2-yl)benzo[b]thiophene-2-carboxamide]
5 | 0.064 µM | 0.25 µM | 42.1 µM | CC(C)(c1ccc(Cl)cc1)c1cc(Cl)cc(NC(=O)c2cc3cc(CS(C)(=N)=O)ccc3s2)c1 (stereo not drawn) [Example 36, N-(3-chloro-5-(2-(4-chlorophenyl)propan-2-yl)phenyl)-5-((S-methylsulfonimidoyl)methyl)benzo[b]thiophene-2-carboxamide]
6 | 0.0089 µM | 0.031 µM | > 50 µM | CC(C)(c1ccc2sc(C(=O)Nc3cc(Br)cc(Oc4ccc(Cl)cc4)c3)cc2c1)S(C)(=O)=O [Example 39, N-(3-bromo-5-(4-chlorophenoxy)phenyl)-5-(2-(methylsulfonyl)propan-2-yl)benzo[b]thiophene-2-carboxamide]
7 | 0.027 µM | 0.2 µM | > 50 µM | COCCS(=O)(=O)C(C)(C)c1ccc2sc(C(=O)Nc3cc(Cl)cc(Oc4ccc(Cl)cc4)c3)cc2c1 [Example 57, N-(3-chloro-5-(4-chlorophenoxy)phenyl)-5-(2-((2-methoxyethyl)sulfonyl)propan-2-yl)benzo[b]thiophene-2-carboxamide]
8 | 0.02 µM | 0.034 µM | > 50 µM | CC(C)(c1ccc2sc(C(=O)Nc3cc(Cl)nc(Oc4cc(Cl)cc(Cl)c4)c3)cc2c1)S(C)(=O)=O [Example 62, N-(2-chloro-6-(3,5-dichlorophenoxy)pyridin-4-yl)-5-(2-(methylsulfonyl)propan-2-yl)benzo[b]thiophene-2-carboxamide]
9 | 0.011 µM | 0.03 µM | > 50 µM | CC(C)(c1ccc2sc(C(=O)Nc3cc(Cl)nc(Oc4ccc(F)cc4)c3)cc2c1)S(C)(=O)=O [Example 68, N-(2-chloro-6-(4-fluorophenoxy)pyridin-4-yl)-5-(2-(methylsulfonyl)propan-2-yl)benzo[b]thiophene-2-carboxamide]
10 | 0.01 µM | 0.015 µM | > 50 µM | CC(C)(c1ccc2sc(C(=O)Nc3cc(Br)nc(Oc4ccc(Cl)cc4)c3)cc2c1)S(C)(=O)=O [Example 69, N-(2-bromo-6-(4-chlorophenoxy)pyridin-4-yl)-5-(2-(methylsulfonyl)propan-2-yl)benzo[b]thiophene-2-carboxamide]
